Measurements taken from the supplement of paper PMC13380429.

Legend:
Details in all cases: 72 h
Caco-2 [1] = assay: cell viability relative to DMSO; higher = less toxic
Calu-3 [2] = assay: as above
HepG2 [3] = assay: as above
U2OS [4] = assay: as above
Vero E6 [5] = assay: as above
Caco-2 [6] = assay: relative viability EC50 (midpoint between 100% and the lowest measured viability); higher = less toxic
Calu-3 [7] = assay: as above
U2OS [8] = assay: as above
Vero E6 [9] = assay: as above
Caco-2 [10] = assay: drug sensitivity score (DSS) for viability; higher = more toxic; extreme values may be limits of the assay
Calu-3 [11] = assay: as above
HepG2 [12] = assay: as above
U2OS [13] = assay: as above
Vero E6 [14] = assay: as above
HepG2 [15] = assay: relative viability EC50 (midpoint between 100% and the lowest measured viability); higher = less toxic

Compound | cell viability (Caco-2 [1]; 1 nM) | cell viability (Caco-2 [1]; 10 nM) | cell viability (Caco-2 [1]; 100 nM) | cell viability (Caco-2 [1]; 1000 nM) | cell viability (Caco-2 [1]; 10000 nM) | cell viability (Calu-3 [2]; 1 nM) | cell viability (Calu-3 [2]; 10 nM) | cell viability (Calu-3 [2]; 100 nM) | cell viability (Calu-3 [2]; 1000 nM) | cell viability (Calu-3 [2]; 10000 nM) | cell viability (HepG2 [3]; 1 nM) | cell viability (HepG2 [3]; 10 nM) | cell viability (HepG2 [3]; 100 nM) | cell viability (HepG2 [3]; 1000 nM) | cell viability (HepG2 [3]; 10000 nM) | cell viability (U2OS [4]; 1 nM) | cell viability (U2OS [4]; 10 nM) | cell viability (U2OS [4]; 100 nM) | cell viability (U2OS [4]; 1000 nM) | cell viability (U2OS [4]; 10000 nM) | cell viability (Vero E6 [5]; 1 nM) | cell viability (Vero E6 [5]; 10 nM) | cell viability (Vero E6 [5]; 100 nM) | cell viability (Vero E6 [5]; 1000 nM) | cell viability (Vero E6 [5]; 10000 nM) | relative viability EC50 (Caco-2 [6]) | relative viability EC50 (Calu-3 [7]) | relative viability EC50 (U2OS [8]) | relative viability EC50 (Vero E6 [9]) | drug sensitivity score (Caco-2 [10]) | drug sensitivity score (Calu-3 [11]) | drug sensitivity score (HepG2 [12]) | drug sensitivity score (U2OS [13]) | drug sensitivity score (Vero E6 [14]) | relative viability EC50 (HepG2 [15])
N#CSc1cc(SC#N)c(N)nc1N [PR-619] | 93% | 91.5% | 93.6% | 92.2% | 85.4% | 109% | 94.5% | 93.9% | 107% | 94.8% | 104% | 120% | 108% | 107% | 55.4% | 101% | 96.4% | 99% | 94.1% | 90.6% | 92.3% | 104% | 103% | 99.6% | 77.3% | > 10 µM | > 10 µM | > 10 µM | > 10 µM | 0 | 0 | 1.9 | 0 | 0.8 | –
O=C(O)CCc1c[nH]c2ccccc12 | – | – | – | – | – | 98.7% | 95.5% | 95.2% | 90.4% | 107% | 116% | 96.7% | 110% | 105% | 108% | 98.5% | 108% | 106% | 107% | 106% | 97.3% | 99.5% | 104% | 102% | 102% | – | > 10 µM | > 10 µM | > 10 µM | – | 0 | 0 | 0 | 0 | > 10 µM
C[C@]12CC[C@H]3[C@@H](CC[C@@]45O[C@@H]4C(O)=C(C#N)C[C@]35C)[C@@H]1CC[C@@H]2O [trilostane] | 105% | 92.9% | 99.9% | 97.6% | 99.3% | – | – | – | – | – | – | – | – | – | – | 98.8% | 103% | 105% | 105% | 97.9% | 91.3% | 98.5% | 92.8% | 92.4% | 102% | > 10 µM | – | > 10 µM | > 10 µM | 0 | – | – | 0 | 0 | –
NC[C@H]1CC[C@H](C(=O)O)CC1 [tranexamic-acid] | 106% | 105% | 104% | 98.3% | 96.4% | 101% | 95.5% | 87.8% | 94.7% | 90.9% | – | – | – | – | – | – | – | – | – | – | 98.1% | 101% | 105% | 94.4% | 103% | > 10 µM | > 10 µM | – | > 10 µM | 0 | 0 | – | – | 0 | –
C=CC1=C(C)c2cc3[nH]c(cc4nc(cc5[nH]c(cc1n2)c(C)c5CCC(=O)O)C(CCC(=O)O)=C4C)c(C)c3C=C [protoporphyrin-IX] | 101% | 102% | 92.7% | 94.4% | 76.4% | 97.4% | 93.8% | 105% | 97.5% | 84.1% | 102% | 91.1% | 105% | 94.2% | 84.6% | 101% | 101% | 98.2% | 101% | 88.6% | 99.8% | 71.4% | 110% | 75.2% | 78.6% | > 10 µM | > 10 µM | > 10 µM | – | 1.4 | 0.6 | 0.8 | 0 | 2.6 | > 10 µM
Cc1coc2c1C(=O)C(=O)c1c-2ccc2c1CCCC2(C)C [tanshinone-IIA] | 97.6% | 95.7% | 92.9% | 103% | 77% | 109% | 105% | 101% | 94.1% | 101% | 90.6% | 105% | 96.5% | 91.4% | 55.4% | 102% | 99.2% | 95.7% | 99.6% | 74.9% | 106% | 104% | 103% | 101% | 97.4% | > 10 µM | > 10 µM | – | > 10 µM | 0.7 | 0 | 3.7 | 1 | 0 | –
Cc1ccc(=O)n(-c2ccccc2)c1 [pirfenidone] | 99.3% | 93.6% | 102% | 99.7% | 100% | 103% | 95.3% | 107% | 103% | 109% | 91.7% | 100% | 106% | 98.8% | 104% | – | – | – | – | – | 107% | 104% | 105% | 103% | 100% | > 10 µM | > 10 µM | – | > 10 µM | 0 | 0 | 0 | – | 0 | > 10 µM
CCCCN(CCCC)CCC(O)c1cc2c(Cl)cc(Cl)cc2c2cc(C(F)(F)F)ccc12 (stereo unspecified) [halofantrine] | 95% | 122% | 104% | 106% | 88.7% | 90.1% | 93.3% | 103% | 109% | 88.1% | 95.5% | 82.1% | 97.4% | 92.1% | 71.8% | 95.2% | 102% | 99.5% | 96.3% | 88% | 109% | 103% | 99.9% | 83.3% | 83.8% | > 10 µM | > 10 µM | > 10 µM | > 10 µM | 0 | 0 | 2.1 | 0.2 | 1.9 | –
CCC[C@H](N[C@@H](C)C(=O)N1[C@H](C(=O)O)C[C@@H]2CCCC[C@@H]21)C(=O)OCC [perindopril] | 107% | 99.9% | 94.4% | 101% | 99.5% | 97% | 86.8% | 93.1% | 90.1% | 102% | 99.1% | 105% | 95.8% | 97.2% | 92.4% | – | – | – | – | – | 99.4% | 105% | 98.1% | 97.3% | 98.8% | > 10 µM | > 10 µM | – | > 10 µM | 0 | 0 | 0 | – | 0 | > 10 µM
Cn1cc(CCn2cnc(-c3cnn(C)c3)c2-c2ccc(C#N)cc2)cn1 [BAZ2-ICR] | – | – | – | – | – | – | – | – | – | – | – | – | – | – | – | – | – | – | – | – | – | – | – | – | – | > 10 µM | > 10 µM | – | > 10 µM | 0 | 0 | 0 | 0 | 0 | > 10 µM
NCCc1ccccn1 [2-pyridylethylamine] | 110% | 96.4% | 107% | 101% | 108% | 98.8% | 88.4% | 93.4% | 105% | 101% | 113% | 104% | 113% | 113% | 93.6% | – | – | – | – | – | 95.2% | 105% | 105% | 102% | 96.6% | > 10 µM | > 10 µM | – | > 10 µM | 0 | 0 | 0 | – | 0 | > 10 µM
Cc1cc(C)cc(NC(=O)Cc2ccc(OC(C)(C)C(=O)O)cc2)c1 [efaproxiral] | – | – | – | – | – | 98.6% | 103% | 104% | 101% | 105% | 107% | 107% | 104% | 101% | 96.4% | 97.7% | 95.7% | 98.9% | 93.5% | 94.3% | 98.5% | 97.5% | 101% | 101% | 98.2% | – | > 10 µM | > 10 µM | > 10 µM | – | 0 | 0 | 0 | 0 | > 10 µM
C[C@H]1[C@@H](O)O[C@@H]2O[C@@]3(C)CC[C@H]4[C@H](C)CC[C@@H]1[C@@]24OO3 [ARTENIMOL] | 100% | 102% | 100% | 88.9% | 79.8% | 93.8% | 94.8% | 97.5% | 101% | 98.6% | 106% | 100% | 96.4% | 97.2% | 71.8% | 96.5% | 104% | 92.4% | 82.4% | 31.8% | 115% | 99.1% | 101% | 103% | 95.9% | > 10 µM | > 10 µM | 1.57 µM | > 10 µM | 1.7 | 0 | 1.6 | 6.3 | 0 | –
FC(F)c1nc2ccccc2n1-c1nc(N2CCOCC2)nc(N2CCOCC2)n1 [ZSTK-474] | 102% | 99.2% | 97.9% | 68.2% | 27.1% | 101% | 102% | 95.3% | 84% | 40.6% | 105% | 106% | 98.5% | 75.6% | 34.3% | 96% | 97.4% | 98.1% | 95.6% | 60% | 95.2% | 101% | 90.3% | 69.8% | 42.4% | 1.14 µM | 1.51 µM | – | 0.768 µM | 7.9 | 5.6 | 6.9 | 2.7 | 6.8 | 1.25 µM
CCC[C@@H]1C[C@@H](C(=O)N[C@@H]([C@H]2O[C@H](SC)[C@H](O)[C@@H](O)[C@H]2O)[C@@H](C)O)N(C)C1 [lincomycin] | 111% | 94.2% | 107% | 97.2% | 111% | 99.5% | 92.6% | 99.1% | 98.7% | 103% | – | – | – | – | – | – | – | – | – | – | 97.6% | 103% | 94.9% | 89.6% | 101% | > 10 µM | > 10 µM | – | > 10 µM | 0 | 0 | – | – | 0 | –
CCN(CC)Cc1ccc(C(=O)N(CCc2ccccc2OC)[C@@H]2CCNC2)cc1 | 99.2% | 93% | 91.6% | 101% | 98.2% | – | – | – | – | – | 97.9% | 96.6% | 108% | 104% | 70.5% | 95.5% | 95.7% | 96.9% | 97.2% | 99.3% | 90.3% | 97.9% | 91.5% | 93.1% | 99.9% | > 10 µM | – | > 10 µM | > 10 µM | 0 | – | 1 | 0 | 0 | –
O=C(NC[C@H](O)CN1CCc2ccccc2C1)c1cc(NC2COC2)ncn1 | 96.1% | 92% | 91% | 95.5% | 91.2% | 103% | 113% | 104% | 102% | 91% | 109% | 104% | 102% | 88.2% | 64.4% | 102% | 97% | 97.5% | 100% | 101% | 97.5% | 97.2% | 100% | 95.8% | 98.9% | > 10 µM | > 10 µM | > 10 µM | > 10 µM | 0 | 0 | 3.4 | 0 | 0 | –
